How the values were obtained:
[1] = test system: pruritus caused by atopic dermatitis; conditions: dogs, cited from earlier work
[2] = test system: Canine PBMC cells; experiment: IL-2 and ConA induced proliferation of canine PBMC cells (flow cytometry, CD4+ population); type: cell-based; conditions: Canis lupus familiaris, CFSE stained, IL-2 and concanavalin A, 120 h, MFI of CD4+ population, read-out: Cell IC50
Method: Recombinant canine IL-2 (Cys147Ser) protein was purchased from R&D (Cat #1815-CL-020/CF). Canine CD4 Alexa Fluor 647-conjugated antibody was purchased from R&D […] A from Canavalia ensiformis (Jack bean) was purchased from Sigma (Cat #C5275-5MG). Oclacitinib maleate was purchased from AbMole Bioscience (Cat #M5827). PBMC cells were purchased from AllCells (Cat #DPB-002).
Flow cytometry is a technology used for detecting and measuring physical and chemical characteristics of populations of cells or particles. Canine PBMC was collected and stained with CFSE, and then the cells (1×10*5 cells/well) were inoculated onto a 96-well plate and incubated for 1 h in a 5% CO2 incubator at 37° C. […] Afterwards, cells were collected and stained with canine CD4 Alexa Fluor 647-conjugated antibodies.
Samples containing cells were resuspended by a staining buffer and injected into a flow cytometry. […] When cells passed through laser beam, a detector detected the scattered light of the cells or particles. The front detector detected forward scatter (FS), multiple detectors placed on the side detected side scatter (SS); and a fluorescence detector detected fluorescence emitted by the stained cells or particles. […]
CD4^+ was circled from lymphocyte populations. MFI of the CD4^+ population was calculated. […]

[3] = biological target: T1, JAK1 (Homo sapiens, UniProt P23458); experiment: JAK1 enzymology experiment (HTRF KinEASE-TK); type: biochemical; conditions: JAK1 enzyme activity, 10 uM ATP, 19.76 nM JAk1, 30 min at 25° C., HTRF 665/615; read-out: Relative IC50
T1 construct: purchased Thermo PV4774
T1 sequence (P23458 866-1154 limits assumed): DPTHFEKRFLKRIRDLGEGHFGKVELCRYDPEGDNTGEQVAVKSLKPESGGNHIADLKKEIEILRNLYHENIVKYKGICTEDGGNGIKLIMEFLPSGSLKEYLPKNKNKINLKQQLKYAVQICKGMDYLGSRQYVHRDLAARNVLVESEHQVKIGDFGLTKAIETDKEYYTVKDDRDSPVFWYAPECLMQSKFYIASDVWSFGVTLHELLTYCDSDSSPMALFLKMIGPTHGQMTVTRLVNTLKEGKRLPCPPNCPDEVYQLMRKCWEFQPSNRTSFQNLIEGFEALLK
Method: JAK1 is a protein tyrosine kinase, and purchased from Thermo (Cat #PV4774). ATP was purchased from Thermo […] was purchased from Selleck (Cat #55001), and HTRF KinEASE-TK kit was purchased from Cisbio (Cat #62TKOPEC).
HTRF®KinEASE™-TK was a universal method to measure activity of tyrosine kinase by a substrate and a universal detection system. The reaction was performed in a 384-well plate (Greiner, Cat #784075), and the total reaction system was 20 ul. The reaction system mainly included a 1× kinase buffer solution, 5 mM MgCl2, 0.625 mM EGTA, 0.06 uM SEB, 1 mM DTT, 0.01% Brij-35, 1 uM TK-Sub-biotin and 10 uM ATP. The compounds prepared in Examples 1-8 and the control compound Oclacitinib were continuously diluted by DMSO to 10 concentration points, and then 100 nl was transferred to a test plate. After 19.76 nM JAk1 was added, the reaction started, 30 min after reaction at 25° C., a detection reagent was added to terminate the reaction (0.25×TK Antibody, 62.5 nM Streptavidin-XL665). After standing for 60 min at room temperature, FRET signal was read out on a Spark 10M or an envision plate reader. (HTRF 665/615=665 nm signal value/615 nm signal value).
665/615 signal ratio was converted to percentage inhibition. […]

CNS(=O)(=O)C[C@H]1CC[C@H](N(C)c2ncnc3[nH]ccc23)CC1 [Oclacitinib]
laboratory animals with more than 50% pruritus reaction relieved ([1]; on the 7th day of treatment): exceeding 70%
time to relieve itching ([1]; oral 0.4-0.6 mg/kg twice a day): ≤ 24 h
treatment of pruritus caused by atopic dermatitis ([1]; oral 0.4-0.6 mg/kg twice a day): safe and effective
IC50 [2]: 447 nM
IC50 [3]: 12.9 nM

From patent US12509463B2, “JAK inhibitor and preparation method therefor” (FELICAMED BIOTECHNOLOGY CO., LTD., priority 2019, dated 2025)
